In patent US9062078B2, “Substituted 7-azabicyles and their use as orexin receptor modulators” (priority 2013, dated 2015):
Like-named read-outs stand apart in the source and are kept apart here.

Tests used:
rat orexin 1 receptor = rat orexin 1 receptor (Rattus norvegicus, UniProt P56718); test: Rat orexin 1 receptor radioligand binding (competitive, [3H]-SB674042, HEK293 cell preparations)
human orexin 1 receptor = human orexin 1 receptor (Homo sapiens (Human), UniProt O43613); test: Human orexin 1 receptor radioligand binding (competitive, [3H]-SB674042, CHO cell preparations)
human orexin 2 receptor = human orexin 2 receptor (Homo sapiens (Human), UniProt O43614); test: Human orexin 2 receptor radioligand binding (competitive, [3H]-EMPA, HEK293 cell preparations)
[1] = rat orexin 1 receptor, [3H]-SB674042 competition binding, read-out: rOX1 Ki (nm)
[2] = human orexin 1 receptor, [3H]-SB674042 competition binding, read-out: hOX1 Ki (nm)
[3] = human orexin 2 receptor, [3H]-EMPA competition binding, read-out: hOX2 Ki (nm)

Sequence of human orexin 1 receptor (O43613 whole entry): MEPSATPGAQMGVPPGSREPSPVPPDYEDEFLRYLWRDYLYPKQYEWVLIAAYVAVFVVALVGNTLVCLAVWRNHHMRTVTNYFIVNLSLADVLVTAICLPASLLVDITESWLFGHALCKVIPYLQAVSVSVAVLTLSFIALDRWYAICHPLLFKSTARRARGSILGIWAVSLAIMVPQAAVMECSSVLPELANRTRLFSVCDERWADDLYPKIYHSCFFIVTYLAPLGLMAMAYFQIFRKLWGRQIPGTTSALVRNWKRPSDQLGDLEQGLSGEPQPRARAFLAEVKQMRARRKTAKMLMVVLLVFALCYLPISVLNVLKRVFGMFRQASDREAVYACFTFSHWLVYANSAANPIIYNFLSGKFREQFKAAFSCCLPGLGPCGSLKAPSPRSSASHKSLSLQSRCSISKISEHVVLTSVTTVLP
Sequence of human orexin 2 receptor (O43614 whole entry): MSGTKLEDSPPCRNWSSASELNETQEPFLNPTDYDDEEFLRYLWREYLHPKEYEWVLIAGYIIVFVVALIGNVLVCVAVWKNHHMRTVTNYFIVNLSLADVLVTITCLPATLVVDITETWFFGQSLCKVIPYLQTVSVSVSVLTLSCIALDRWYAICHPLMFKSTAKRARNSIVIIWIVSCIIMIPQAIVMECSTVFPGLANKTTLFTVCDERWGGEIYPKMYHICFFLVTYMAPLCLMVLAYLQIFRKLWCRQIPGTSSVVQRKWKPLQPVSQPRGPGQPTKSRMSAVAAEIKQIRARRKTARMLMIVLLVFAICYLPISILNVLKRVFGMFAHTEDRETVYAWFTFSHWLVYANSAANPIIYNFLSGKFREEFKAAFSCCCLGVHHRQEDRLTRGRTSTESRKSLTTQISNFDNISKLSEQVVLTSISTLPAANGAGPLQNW

SMILES	Ki (rat orexin 1 receptor; [1])	Ki (human orexin 1 receptor; [2])	Ki (human orexin 2 receptor; [3])	Ki (rat orexin 1 receptor; read-out: rOX1 Ki (nm))	Ki (human orexin 1 receptor; read-out: hOX1 Ki (nm))	Ki (rat orexin 1 receptor; rOX1 Ki (nm))	Ki (human orexin 1 receptor; hOX1 Ki (nm))	Ki (human orexin 2 receptor; hOX2 Ki (nm))
O=C(c1cccc(F)c1-c1cccnn1)N1[C@@H]2CC[C@H]1[C@H](Nc1cnc(C(F)(F)F)cn1)C2 [Example 262, (3-fluoro-2-(pyridazin-3-yl)phenyl)((1S,2R,4R)-2-((5-(trifluoromethyl)pyrazin-2-yl)amino)-7-azabicyclo[2.2.1]heptan-7-yl)methanone]	106 nM	175 nM	4200 nM	–	–	–	–	–
Cc1cccc(C(=O)N2[C@@H]3CC[C@H]2[C@H](Nc2cnc(C(F)(F)F)cn2)C3)c1-c1cccnn1 [Example 263, (3-methyl-2-(pyridazin-3-yl)phenyl)((1S,2R,4R)-2-((5-(trifluoromethyl)pyrazin-2-yl)amino)-7-azabicyclo[2.2.1]heptan-7-yl)methanone]	–	–	1100 nM	44 nM	41 nM	–	–	–
O=C(c1ccc(F)cc1-c1ncccn1)N1[C@@H]2CC[C@H]1[C@H](Nc1cnc(C(F)(F)F)cn1)C2 [Example 267, (4-fluoro-2-(pyrimidin-2-yl)phenyl)((1S,2R,4R)-2-((5-(trifluoromethyl)pyrazin-2-yl)amino)-7-azabicyclo[2.2.1]heptan-7-yl)methanone]	–	–	1700 nM	33 nM	61 nM	–	–	–
O=C(c1cccc(F)c1-n1nccn1)N1[C@@H]2CC[C@H]1[C@H](Nc1ncc(C(F)(F)F)cn1)C2 [Example 269, (3-fluoro-2-(2H-1,2,3-triazol-2-yl)phenyl)((1S,2R,4R)-2-((5-(trifluoromethyl)pyrimidin-2-yl)amino)-7-azabicyclo[2.2.1]heptan-7-yl)methanone]	–	111 nM	1700 nM	48 nM	–	–	–	–
O=C(c1cccc(F)c1-c1ncccn1)N1[C@@H]2CC[C@H]1[C@H](Nc1ncc(C(F)(F)F)cn1)C2 [Example 271, (3-fluoro-2-(pyrimidin-2-yl)phenyl)((1S,2R,4R)-2-((5-(trifluoromethyl)pyrimidin-2-yl)amino)-7-azabicyclo[2.2.1]heptan-7-yl)methanone]	–	–	2300 nM	41 nM	42 nM	–	–	–
Cc1cccc(C(=O)N2[C@@H]3CC[C@H]2[C@H](Nc2ncc(C(F)(F)F)cn2)C3)c1-n1nccn1 [Example 272, (3-methyl-2-(2H-1,2,3-triazol-2-yl)phenyl)((1S,2R,4R)-2-((5-(trifluoromethyl)pyrimidin-2-yl)amino)-7-azabicyclo[2.2.1]heptan-7-yl)methanone]	–	–	742 nM	21 nM	26 nM	–	–	–
Cc1cccc(C(=O)N2[C@@H]3CC[C@H]2[C@H](Nc2ncc(C(F)(F)F)cn2)C3)c1I [Example 276, (2-iodo-3-methylphenyl)((1S,2R,4R)-2-((5-(trifluoromethyl)pyrimidin-2-yl)amino)-7-azabicyclo[2.2.1]heptan-7-yl)methanone]	133 nM	–	2500 nM	–	97 nM	–	–	–
Cc1cnc(N[C@@H]2C[C@H]3CC[C@@H]2N3C(=O)c2cccc(F)c2-c2ncccn2)cn1 [Example 278, (3-fluoro-2-(pyrimidin-2-yl)phenyl)((1S,2R,4R)-2-((5-methylpyrazin-2-yl)amino)-7-azabicyclo[2.2.1]heptan-7-yl)methanone]	–	–	934 nM	87 nM	77 nM	–	–	–
O=C(c1cccc(F)c1-c1ncccn1)N1[C@@H]2CC[C@H]1[C@H](Nc1ccc(C(F)(F)F)cn1)C2 [Example 279, (3-fluoro-2-(pyrimidin-2-yl)phenyl)((1S,2R,4R)-2-((5-(trifluoromethyl)pyridin-2-yl)amino)-7-azabicyclo[2.2.1]heptan-7-yl)methanone]	–	–	–	–	–	15 nM	8 nM	1100 nM
O=C(c1ccc(F)cc1-c1ncccn1)N1[C@@H]2CC[C@H]1[C@H](Nc1ccc(C(F)(F)F)cn1)C2 [Example 280, (4-fluoro-2-(pyrimidin-2-yl)phenyl)((1S,2R,4R)-2-((5-(trifluoromethyl)pyridin-2-yl)amino)-7-azabicyclo[2.2.1]heptan-7-yl)methanone]	–	–	1300 nM	39 nM	37 nM	–	–	–
O=C(c1cccc(F)c1-c1ncco1)N1[C@@H]2CC[C@H]1[C@H](Nc1ncc(C(F)(F)F)cn1)C2 [Example 284, (3-fluoro-2-(oxazol-2-yl)phenyl)((1S,2R,4R)-2-((5-(trifluoromethyl)pyrimidin-2-yl)amino)-7-azabicyclo[2.2.1]heptan-7-yl)methanone]	–	–	1700 nM	29 nM	27 nM	–	–	–
O=C(c1ncccc1-n1nccn1)N1[C@@H]2CC[C@H]1[C@H](Nc1cnc(C(F)(F)F)cn1)C2 [Example 288, (3-(2H-1,2,3-triazol-2-yl)pyridin-2-yl)((1S,2R,4R)-2-((5-(trifluoromethyl)pyrazin-2-yl)amino)-7-azabicyclo[2.2.1]heptan-7-yl)methanone]	–	128 nM	1900 nM	94 nM	–	–	–	–
